These results are taken from patent publication US10624968B2, “Compounds for treating cancer” (Bicycle Therapeutics Limited, priority 2017, dated 2020).

The test system of series [1] is EBC-1. Nature of the series: cells. The note with it: Homo sapiens, EBC-1, 72 h. From the text: (§1) Details of the initial cell plating procedure are described in Table 3.
(§2) Data Details for Tables 5 and 6. Inhibition %=(Max−Sample value)/(Max−Min)*100.
(§3) The IC50 curves were generated by 4 Parameter Logistic Model—Sigmoidal Dose-Response Model as follows: Y=Bottom+(Top−Bottom)/(1+10^((log EC50-X)*HillSlope)).

Series [2] relates to HCC1806. Briefly: cells. Conditions: Homo sapiens, HCC1806, 72 h.
From the text: as §1, §2, §3

In series [3] the test system is HCT15. Briefly: cells. The note with it: Homo sapiens, HCT-15, 72 h.
From the text: as §1, §2, §3

Series [4] relates to HT1080. Briefly: cells. Conditions: Homo sapiens, HT-1080, 72 h.
From the text: as §1, §2, §3

The test system of series [5] is HT29. Nature of the series: cells. The note with it: Homo sapiens, HT-29, 72 h.
From the text: as §1, §2, §3

The subject of series [6] is MDA-MB-231. Nature of the series: cells. Conditions: Homo sapiens, MDA-MB-231, 72 h.
From the text: as §1, §2, §3

Series [7] relates to MOLP-8. Briefly: cells. Conditions: Homo sapiens, MOLP-8, 72 h.
From the text: as §1, §2, §3

Series [8] concerns NCI-H1975. Nature of the series: cells. The note with it: Homo sapiens, NCI-H1975, 72 h.
From the text: as §1, §2, §3

In series [9] the test system is NCI-H292. Briefly: cells. The note with it: Homo sapiens, NCI-H292, 72 h.
From the text: as §1, §2, §3

The test system of series [10] is PC-3. Briefly: cells. Conditions: Homo sapiens, PC-3, 72 h.
From the text: as §1, §2, §3

The test system of series [11] is SNU-16. Briefly: cells. The note with it: Homo sapiens, SNU-16, 72 h.
From the text: as §1, §2, §3

The subject of another series is 11 tumor cell lines. Briefly: 11 cancer cell line panel cytotoxicity, statements on the whole panel.
From the text: as §1, §2, §3

Series [12] concerns HT1080. The note with it: historical, read-out: IC50* (Historical IC50 observed for paclitaxel); cited from earlier work.
Series [13] concerns PC-3. The note with it: historical, read-out: IC50* (Historical IC50 observed for paclitaxel); cited from earlier work.
Series [14] relates to MDA-MB-231. The note with it: historical, read-out: IC50* (Historical IC50 observed for paclitaxel); cited from earlier work.
Series [15] concerns NCI-H292. The note with it: historical, read-out: IC50* (Historical IC50 observed for paclitaxel); cited from earlier work.
Series [16] deals with NCI-H1975. Conditions: historical, read-out: IC50* (Historical IC50 observed for paclitaxel); cited from earlier work.
Series [17] concerns HCC1806. Conditions: historical, read-out: IC50* (Historical IC50 observed for paclitaxel); cited from earlier work.
In series [18] the test system is EBC-1. The note with it: historical, read-out: IC50* (Historical IC50 observed for paclitaxel); cited from earlier work.
The test system of series [19] is SNU-16. The note with it: historical, read-out: IC50* (Historical IC50 observed for paclitaxel); cited from earlier work.
Series [20] concerns HCT15. The note with it: historical, read-out: IC50* (Historical IC50 observed for paclitaxel); cited from earlier work.
The subject of series [21] is HT29. Conditions: historical, read-out: IC50* (Historical IC50 observed for paclitaxel); cited from earlier work.
Series [22] concerns MOLP-8. Conditions: historical, read-out: IC50* (Historical IC50 observed for paclitaxel); cited from earlier work.

Where two headings read alike, the source gives them in different places.

Consider `CC(=O)O[C@H]1C(=O)[C@@]2(C)[C@H]([C@H](OC(=O)c3ccccc3)[C@]3(O)C[C@H](OC(=O)[C@H](O)[C@@H](NC(=O)c4ccccc4)c4ccccc4)C(C)=C1C3(C)C)[C@]1(OC(C)=O)CO[C@@H]1C[C@@H]2O` [Paclitaxel], for which the IC50 (as a rule, the concentration at which inhibition is half-maximal) in the series with EBC-1 [1] amounted to 4.1 nM; in the series on HCC1806 [2], 2.7 nM; in the series on HCT15 [3], 112 nM; with HT1080 [4], 6.6 nM; in the series with HT29 [5], 4.1 nM; with MDA-MB-231 [6] it was 4.8 nM. For the same compound, the IC50 was 6.9 nM with MOLP-8 [7]; 7.2 nM with NCI-H1975 [8]; 2.9 nM in the series on NCI-H292 [9]; 9.2 nM in the series with PC-3 [10]; 2.5 nM in the series with SNU-16 [11]; 1 nM in the series with HT1080 [12]. Besides, the IC50 in the series on PC-3 [13] is 12 nM; with MDA-MB-231 [14], 9 nM; with NCI-H292 [15], 2 nM; in the series with NCI-H1975 [16] it was 5 nM; in the series on HCC1806 [17], 2 nM; with EBC-1 [18], 4 nM. The IC50 was 2 nM with SNU-16 [19], 128 nM with HCT15 [20], 2 nM in the series with HT29 [21] and 4 nM with MOLP-8 [22]. In the series with 11 tumor cell lines, the “cytotoxic activity over the cell line panel (in words)” value was “worked well on all the tested cell lines”.
